Test results reported in US20190038628A1, “USE OF INHIBITORS OF THE ACTIVITY OR FUNCTION OF PI3K FOR THE TREATMENT OF PRIMARY SJOGREN'S SYNDROME” (Novartis AG, priority 2016, published 2019).
pIC50: −log10 of the molar value. Read-outs that look alike come from different tables or passages of the source.

Tests used:
Type in all cases: cell-based
[1] = system: BPMC derived from human healthy volunteers; test: Chemokines in supernatant of PBMC from healthy volunteers stimulated with CpG or anti-IgM (summary statement)
From the text: Phosphorylated Akt (pAkt) is a downstream effector of PI3K delta activation. 1-{(S)-3-[6-(6-Methoxy-5-trifluoromethyl-pyridin-3-yl)-5,6,7,8-tetrahydro-pyrido[4,3-d]pyrimidin-4-ylamino]-pyrrolidin-1-yl}-propan-1-one or pharmaceutically acceptable salts thereof is a PI3K inhibitor with a selectivity for the PI3K delta isoform (WO2012/004299). […] 1) Chronic B-cell hyperactivity is a consistent and prominent immunoregulatory abnormality in pSS (Hansen A et al, Arthritis Research & Therapy 2007; 9; 218). […] 1-{(S)-3-[6-(6-Methoxy-5-trifluoromethyl-pyridin-3-yl)-5,6,7,8-tetrahydro-pyrido[4,3-d]pyrimidin-4-ylamino]-pyrrolidin-1-yl}-propan-1-one or pharmaceutically acceptable salts thereof inhibits CXCL13 (BCA-1, BLC), but also of CXCL10 (IP-10) and CCL4 (MIP-1beta) in supernatant of BPMC derived from human healthy volunteers stimulated with CpG or anti-IgM. • 3) Characteristic features in pSS include the formation of ectopic lymphoid tissue with germinal center (GC)-like structures. In healthy individuals, GCs are generated from primary B-cell follicles of secondary lymphoid organs during T-cell-dependent immune responses (Hansen A et al, Arthritis Research & Therapy 2007; 9; 218).

Murine B cells = test: Mouse B cell proliferation following BCR stimulation; details: Mouse spleen, stimulus Anti-IgM, mean of at least two experiments
Method: Murine B cells were stimulated via BCR by anti-IgM antibody in the presence of titrated amounts of compounds as described in (Julius et al 1984) and proliferation was assessed by incorporation of radioactive ^3H-Thymidine.

[2] = system: Splenic B cell from Balb/c nu/nu mice; test: LPS-induced antibody production from mouse B cells in vitro; details: Mouse spleen, stimulus LPS/IL-4, readout IgM, mean of at least two experiments
Method: The LPS-induced B cell functions were investigated according to a protocol adapted from Moon (Moon et al 1989) with minor modifications: Splenic B cell from Balb/c nu/nu mice were cultured with mIL-4, mIL-5 and LPS in the presence of titrated amounts of compound. The final concentrations were 0.5×10^5 splenocytes/well, 500 U/ml mIL-4, 500 U/ml mIL-5, and 50 μg/ml LPS. Supernatants were analyzed for antibody production by ELISA after 6 days of incubation.

[3] = system: Mouse BCR transgenic B cells; test: Proinflammatory cytokine release of mouse BCR transgenic B cells; details: Mouse BCR tg B cell, stimulus HEL, mean of at least two experiments
From the text: Purification of CD19^+ splenic B cells from MD4 HEL BcR Tg mice MD4 HEL BcR transgenic B10.BR (MD4 B10.BR) mice were a kind gift from Prof. Jose Moreno (Research Unit on Autoimmune Diseases, Centro Medico Nacional Siglo XXI, Mexico).
The spleens were isolated from MD4 B10.BR and non-transgenic litter control B10.BR mice after sacrificed by exposure to excess amount of isoflurane. The isolated spleens were suspended in RPMI1640 (Invitrogen, #31870), and dissociated by GentleMACS Dissociator (Miltenyi Biotec), and filtrated with Cell Strainer (BD Falcon, 70 μm mesh, #352350). […] The purity was determined via the proportion of CD19 cells in the separated fraction in FACS analysis, and was more than 95%.
FACS Data was analyzed, and their mean fluorescence intensity (MFI) were calculated with FlowJo software (Tree Star Inc). The IC50 values were calculated with GraphPad PRISM ver 6.0 software (GraphPad Software Inc).
One million of B cells purified from MD4 B10.BR as written in the section 2.1 was suspended in 200 μl of complete culture medium, and stimulated with 100 μM of HEL proteins with soluble CD40 ligand at 37° C., 5% CO2 for 48 hours. […] The data are represented as the mean of concentration (pg/ml) from triplicate samples, and IC50 values are calculated as described above. […]

pIC50 [2]: 6.63 | pIC50 ([3]; read-out: IC50 IL-6): 7.66 | pIC50 ([3]; read-out: IC50 TNFα): 7.55
Structure (SMILES): CCC(=O)N1CC[C@H](Nc2ncnc3c2CN(c2cnc(OC)c(C(F)(F)F)c2)CC3)C1 [Compound A, 1-{(S)-3-[6-(6-Methoxy-5-trifluoromethyl-pyridin-3-yl)-5,6,7,8-tetrahydro-pyrido[4,3-d]pyrimidin-4-ylamino]-pyrrolidin-1-yl}-propan-1-one]
CCL4 (MIP-1beta) in supernatant (in words) [1]: inhibits | CXCL10 (IP-10) in supernatant (in words) [1]: inhibits | CXCL13 (BCA-1, BLC) in supernatant (in words) [1]: inhibits | pIC50 (Murine B cells): 8.10
